Laboratory results reported in article PMC9531406 (Clinical cancer research : an official journal of the …, 2020).

Tests used:
FTC133 tumors = experiment: PRRT in FTC133; format: in vivo; settings: FTC133 mice model; VAC 300 µg/kg intraperitoneal daily for 10 days
AR42J tumors = experiment: PRRT in AR42J; format: in vivo; settings: AR42J mice model; VAC 300 µg/kg intraperitoneal daily for 10 days
SSTR2 promoter [1] = experiment: ChIP assay, histone acetylation at the SSTR2 promoter, BCPAP cells; format: cell-based, human; settings: VAC 4mM, 72h, n=4, relative to control, p<0.001
SSTR2 promoter [2] = experiment: ChIP assay, histone acetylation at the SSTR2 promoter, AR42J cells; format: cell-based, rat; settings: VAC 4mM, 72h, n=4, relative to control
SSTR2 promoter [3] = experiment: ChIP assay, histone acetylation at the SSTR2 promoter, FTC133 cells; format: cell-based, human; settings: VAC 4mM, 72h
SSTR2 expression [4] = experiment: SSTR2 expression in thyroid cancer cells after epigenetic modifiers; format: cell-based, human
SSTR2 expression [5] = experiment: SSTR2 expression in AR42J cells after VAC; format: cell-based, rat; settings: AR42J cell line; 2 mM or 4 mM for 72 h
examined cell lines = experiment: Growth inhibition / cell cycle after VAC treatment; format: cell-based; settings: VAC treatment (Supplemental Figure 3)
[6] = tested on: subcutaneous and metastatic mice models; experiment: Effect of epigenetic pretreatment on uptake of SST analogs in mice models; format: in vivo; settings: for effect on the uptake of ^86Y-DOTA-EB-TATE within the tumor and normal tissues in comparison with control mice: biodistribution, FTC133 and AR42J tumor-bearing mice
SSTR2 = experiment: IHC staining of SSTR2 in tumor tissues of treated mice; format: in vivo; settings: FTC133 (p=0.023) and AR42J (p=0.016) models; VAC 300 µg/kg intraperitoneal daily for 10 days
[7] = tested on: acetylated histone 3 and acetylated histone 4; experiment: Global histone acetylation; format: cell-based; settings: FTC133, BCPAP, and AR42J cells; VAC 4mM, 72h, n=3

SMILES | effect of VAC pretreatment on the efficacy of ^177Lu-DOTA-EB-TATE (FTC133 tumors) | effect of VAC pretreatment on the efficacy of ^177Lu-DOTA-EB-TATE (AR42J tumors) | increase in H3ac at the SSTR2 promoter (SSTR2 promoter [1]) [fold] | increase in H4ac at the SSTR2 promoter (SSTR2 promoter [1]) [fold] | increase in H3ac at the SSTR2 promoter (SSTR2 promoter [2]; p<0.001) [fold] | increase in H4ac at the SSTR2 promoter (SSTR2 promoter [2]; p<0.01) [fold] | increase in H4 acetylation at the SSTR2 promoter (SSTR2 promoter [3]; n=4, p<0.001) [fold] | H3 acetylation at the SSTR2 promoter (SSTR2 promoter [3]; n=4, p<0.05) | SSTR2 expression (SSTR2 expression [4]; FTC133, BCPAP and TT cells, 2 mM or 4 mM for 72 h) | induction of SSTR2 expression in comparison to TAC and DEC (SSTR2 expression [4]; thyroid cancer cells, 72h) | SSTR2 expression (SSTR2 expression [5]) | effect on cell growth (examined cell lines) | effect on the uptake of ^86Y-DOTA-EB-TATE within the tumor and normal tissues in comparison with control mice [6] | effect of VAC treatment on the uptake of the SST analogs ([6]; subcutaneous and metastatic mice models, VAC 300 µg/kg intraperitoneal daily for 10 days, PET) | SSTR2 expression in tumor tissues compared with placebo (IHC) (SSTR2) | global histone acetylation at the protein level [7] | effect of decitabine treatment on the uptake of ^86Y-DOTA-EB-TATE ([6]; FTC133 and AR42J subcutaneous mice models, decitabine 1 mg/kg intraperitoneal daily for 10 days, PET scans)
CCCC(CCC)C(=O)O [VAC, valproic acid] | did not improve the efficacy | did not improve the efficacy | 1.9 | 2.9 | 2.8 | 2.7 | 2.4 | slightly, but significantly reduced | significantly upregulated | more potent inducer of SSTR2 expression | significantly upregulated | growth inhibition by promoting cell cycle arrest | Neither VAC nor DEC treatment resulted in any significant difference | no significant effect | higher cytoplasmic SSTR2 expression | increase in H3ac and H4ac | 
Nc1ncn([C@H]2C[C@H](O)[C@@H](CO)O2)c(=O)n1 [decitabine] |  |  |  |  |  |  |  |  |  |  |  |  | Neither VAC nor DEC treatment resulted in any significant difference |  |  |  | did not improve the uptake
